A short description of this series: gradient 5% acetonitrile 3 min, to 50% in 2 min, to 85% in 15 min, held 3 min, 100 µL/min. The settings on record: column: Zorbax Extend-C18 2.1 x 50 mm; eluents: water / acetonitrile, 0.1% formic acid. In a few lines:
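Values are retention times taken from adduct peaks that software picked and an analyst inspected. The pure standards were run as mixtures of ~100 molecules on HPLC linked to a quadrupole time-of-flight mass spectrometer, in positive and negative ionization mode. A Zorbax Extend-C18 column (2.1 × 50 mm, 1.8 μm) was used at 100 μL/min with water and acetonitrile, each including 0.1% formic acid.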
In turn, `Cc1ccc(C)c(NC(=O)N2CCc3nc(-c4ccccc4)ncc3C2)c1` registered an RP-LC retention time of 924 s. `CCn1c(=O)c(C(=O)NCCN2CCc3ccccc3C2)nc2cccnc21` returned an RP-LC retention time of 620 s. Take `O=C1COc2cc(Cl)ccc2N1Cc1nc(-c2ccccc2)no1`: the RP-LC retention time turned out to be 1060 s. Turning to `CCn1cc(CCNC(=O)c2ccc(OC)cc2)c2cccnc21`, the RP-LC retention time was found to be 675 s. For the compound `Cc1ccc(Cn2c(=O)n(CCNC(=O)CC(C)(C)C)c3ncccc32)cc1`, the RP-LC retention time was found to be 855 s. For the compound `O=C(Nc1ccccc1)N1CCC(N2CC(OCC3CC3)C23CCOCC3)CC1` (centres undefined), the RP-LC retention time was found to be 635 s.

In turn, `O=C(c1cnccn1)N1CCc2nn(CC3CC3)c(=O)n2CC1` registered an RP-LC retention time of 598 s. In the case of `Cc1cc(=O)n(CC(=O)Nc2cccc(Cl)c2)c(N2CCCCC2)n1` it was 701 s; in that of `COc1ccc(Oc2cc3c(cc2NC(=O)Nc2cccc(OC)c2)n(C)c(=O)n3C)cc1`, 920 s. On to `Cc1nnc2cc(N3CCN(C(=O)Nc4ccccc4Cl)CC3)cnn12`, for which the RP-LC retention time was 567 s. As to `CC(C)N1CCn2c(nc3cc(C(=O)NCc4ccc(Cl)cc4)ccc32)C1=O`, the RP-LC retention time came to 741 s. Take `CCOc1ccc(S(=O)(=O)N2CCC(c3noc(-c4cccc(OC)c4)n3)CC2)cc1`: the RP-LC retention time came to 1150 s. The result for `Cc1ccc(-c2cc(C(F)(F)F)on2)cc1S(=O)(=O)N1CCN(c2ccccn2)CC1` reads 868 s; that for `Cc1cccc(CS(=O)(=O)N2CC(c3nc(Cc4ccccc4)no3)C2)c1`, 977 s. Regarding `Cc1ccc(N2CCC(NC(=O)Nc3cc(C)ccc3C)C2=O)cc1` (centres undefined), the RP-LC retention time worked out at 618 s.

Consider `O=C(COc1ccc(Cl)cc1Cl)Nc1c(-c2ccccc2)nc2ccccn12`, for which the RP-LC retention time was determined as 738 s. Consider `O=C(O)c1ccc(-c2nnc3ccc(NC(=O)C4CCC4)cn23)cc1`, for which the RP-LC retention time came to 683 s. In the case of `COc1ccc(NC(=O)Cn2nc(N3CCSCC3)c3ccccc3c2=O)cc1` it was 1180 s. Consider `Cc1nnc2cc(N3CCN(S(=O)(=O)c4ccc(C(C)(C)C)cc4)CC3)cnn12`, for which the RP-LC retention time was 824 s.

Turning to `Cc1cc(S(=O)(=O)N2CCCCC2c2nncn2C)ccc1F` (centres undefined), the RP-LC retention time came out at 717 s. Turning to `Cc1ccc(CCNC(=O)C2CCCN(S(=O)(=O)c3cc(-c4noc(C)n4)cs3)C2)cc1` (centres undefined), the RP-LC retention time was 1060 s. In the case of `CCC(C)C(NC(=O)c1ccccn1)C(=O)Nc1nc2ccccc2[nH]1` (centres undefined) it was 715 s; in that of `Cc1csc(NC(=O)Cn2nc3c(cc2=O)CCCCC3)n1`, 735 s; in that of `Cc1nc2c(NC(=O)COc3ccc(F)c(F)c3)cccn2n1`, 818 s. As for `O=C1[C@H]2CN(Cc3ccc(F)cc3Cl)C[C@H]2C(=O)N1Cc1ccc2c(c1)OCO2`, the RP-LC retention time is 992 s. The compound `CCOC(=O)C(=O)Nc1ccc(C(F)(F)F)cc1` had an RP-LC retention time of 834 s. Turning to `CCOC(=O)c1noc2nc(C)nc(NCCCN3CCN(c4cccc(C)c4)C(C)C3)c12` (centres undefined), the RP-LC retention time was 739 s. `Cc1nc2cc(-c3noc(-c4ccsc4)n3)ccc2o1` yielded an RP-LC retention time of 977 s. The compound `COC(=O)c1scc(-c2ccccc2)c1S(=O)(=O)N1CCN(c2ccccn2)CC1` yielded an RP-LC retention time of 729 s. The result for `Cc1ccc(Nc2c(-c3ccccc3O)nc3cc(C)ccn23)cc1` reads 701 s. The result for `CC(C)CC(=O)Nc1nc(-c2ccc3ccccc3c2)cs1` reads 1140 s. `COc1ccc(NC(=O)Cn2nc3c(Oc4cccc(F)c4)nccn3c2=O)cc1`: the RP-LC retention time is 814 s. With `CCOC(=O)CNC(=O)CSc1ccc2nnc(-c3cccc(F)c3)n2n1`, the RP-LC retention time is 625 s.

`Cc1ccc(S(=O)(=O)N2CCc3c(c(-c4nnc(-c5ccc(F)cc5)o4)nn3C)C2)cc1Cl` registered an RP-LC retention time of 1040 s. For `CC(NC(=O)CCC(=O)N1CCc2c(c(C(=O)N3CCOCC3)nn2C)C1)c1ccccc1` (centres undefined), the RP-LC retention time was determined as 632 s. The result for `CCc1cc(C(=O)Nc2ccc(Cl)cc2)nc2ccnn12` reads 1080 s; that for `CCN1CCN(S(=O)(=O)c2c(C)nn(-c3ccc(-c4ccc(C)cc4)nn3)c2C)CC1`, 708 s.

For `Cc1ccc(CCNC(=O)c2ncn3c2C(=O)N(C2CC2)C(C)(C(=O)NC2CCCC2)C3)cc1` (centres undefined), the RP-LC retention time amounted to 795 s.

In turn, `Cc1ccc2c(c1)cc(S(=O)(=O)c1ccccc1)c(=O)n2CC(=O)NC1CCCC1` showed an RP-LC retention time of 903 s.

Compound `CCOc1ccccc1-c1nc(CN(c2ccccc2OC)S(=O)(=O)c2ccccc2C)c(C)o1` showed an RP-LC retention time of 1250 s.

Consider `COCc1nnc(NC(=O)c2ccccc2OCc2nc(-c3ccccc3)no2)s1`, for which the RP-LC retention time was 1080 s.

Take `Cc1csc(NC(=O)c2ccc(N3CCCC3)nn2)n1`: the RP-LC retention time is 626 s. Compound `Cc1ccc(C(=O)NCCn2c(=O)n(Cc3ccc(F)cc3)c3cccnc32)s1` gave an RP-LC retention time of 781 s. The compound `O=C(Nc1ccccc1Br)N1CCc2nc(-c3ccc(Cl)cc3)ncc2C1` had an RP-LC retention time of 1130 s. The result for `COc1ccc2nc(NC3=NCN(CCc4ccc(OC)c(OC)c4)CN3)nc(C)c2c1` reads 709 s; that for `CCOC(=O)C1C(=O)C=C(c2cccc(NS(C)(=O)=O)c2)CC1c1ccccc1F` (centres undefined), 840 s; that for `O=C(CSc1ccc(F)cc1)NCC1(CO)CC1`, 629 s. `COC(=O)c1cnc2nc(C)ccc2c1Nc1ccc(Cl)cc1F`: the RP-LC retention time was 711 s. Consider `COc1ccc(-c2noc(-c3nnn4c3COC(c3ccc(Cl)cc3)C4)n2)cc1F` (centres undefined), for which the RP-LC retention time is 1230 s. As to `Cc1nc(C2(C)CCN(S(=O)(=O)c3ccc(Cl)cc3C)CC2)no1`, the RP-LC retention time was 1040 s. `O=C(NCCCN1CCC(Cc2ccccc2)CC1)C1CCCN(S(=O)(=O)N2CCCCC2)C1` (centres undefined) registered an RP-LC retention time of 745 s. In turn, `CCCC(=O)Nc1ccc2c(c1)CN(C(=O)c1ccc(F)cc1F)C(C(=O)N(C)C)C2` (centres undefined) displayed an RP-LC retention time of 704 s. `COc1cc(OC)cc(-c2nnc(Cc3nc(-c4ccccc4Cl)no3)o2)c1` displayed an RP-LC retention time of 1020 s.

In turn, `CCC(C)NC(=O)N1CCN(Cc2nc3cc(C(=O)N(C)C)ccc3n2C)CC1` (centres undefined) returned an RP-LC retention time of 586 s. The compound `Cc1ccc(-c2noc(CSc3nc4cc5c(cc4c(=O)n3C3CC3)OCO5)n2)cc1` had an RP-LC retention time of 874 s. Take `Cc1ccc(NC(=O)C2CCCN(c3nc4ccccc4nc3C(F)(F)F)C2)c(C)c1` (centres undefined): the RP-LC retention time worked out at 1230 s.

The compound `O=C(CCc1ccccc1)Nc1nnc(C2CC(=O)N(c3ccc(Cl)cc3)C2)o1` (centres undefined) returned an RP-LC retention time of 805 s.

Compound `O=C(NC1CCc2nnc(C3CC3)n2CC1)c1ccc(Cn2cncn2)o1` (centres undefined) gave an RP-LC retention time of 558 s. On to `CCc1nnc(-c2ccc3ccn(CC(=O)NCc4ccc(N(C)C)cc4)c3c2)o1`, for which the RP-LC retention time worked out at 640 s. For `O=S(=O)(Cc1ccc(Cl)cc1)Nc1cccn2ncnc12`, the RP-LC retention time is 800 s. Compound `COc1ccc(N2CCN(CCNC(=O)c3ccc(S(=O)(=O)N(C)C)cc3)CC2)cc1` had an RP-LC retention time of 589 s. The result for `Cc1ccc(N(C)C(=O)C2CCCN(c3ncnc4c3nc3n4CCCCC3)C2)cc1C` (centres undefined) reads 897 s. Consider `CCn1nccc1-c1cccc(-c2noc(CNC(=O)Cc3ccccc3)n2)c1`, for which the RP-LC retention time stood at 855 s. The result for `Cc1ccc2c(c1)N(CCCC(=O)N1CCN(Cc3cn(C)c4ccccc34)CC1)C(=O)CO2` reads 706 s. Take `CCC1CN(C(=O)N2CCC(C(=O)NCCN3CCN(C)CC3)CC2)c2ccccc2O1` (centres undefined): the RP-LC retention time is 606 s. `Cc1ccc2c(Nc3ccc4c(c3)OCO4)c(C(=O)N3CCCC3)cnc2n1` showed an RP-LC retention time of 591 s.

The compound `COc1ccc(CNC(=O)C2(C)CCCN(S(=O)(=O)c3ccccc3Cl)C2)cc1` (centres undefined) returned an RP-LC retention time of 932 s. With `O=C(NCc1ccccn1)c1scc(-c2ccc(F)cc2)c1-n1cccc1`, the RP-LC retention time is 821 s.

`Cc1ccsc1C(=O)N1CCCC2(CC1)CN(C)C(=O)O2` (centres undefined) returned an RP-LC retention time of 661 s. The compound `Nc1ccc2nc3ccc(=O)cc-3n(-c3ccccc3)c2c1` displayed an RP-LC retention time of 614 s. In turn, `CC(NC(=O)C1CCCN(C(=O)c2cc3sccc3n2C)C1)c1ccccc1` (centres undefined) gave an RP-LC retention time of 628 s. Consider `O=C(NCc1ccc(F)cc1Cl)c1csc(C(=O)NC2CCCC2)n1`, for which the RP-LC retention time turned out to be 968 s. Regarding `Fc1cnccc1CN1CCC(N2CC3(CCCCC3)C2c2ccccc2)CC1` (centres undefined), the RP-LC retention time stood at 596 s. With `CC(C)C(=O)NCCc1nc2cccnc2n1C`, the RP-LC retention time was determined as 545 s. Consider `COc1c(C(=O)NC2CC2)sc2cc(Cl)ccc12`, for which the RP-LC retention time came to 965 s. In the case of `COc1ccccc1-n1ccnc(NC(=O)Nc2ccc(F)cc2F)c1=O` it was 938 s.

`CC1CS(=O)(=O)N(c2ccc(S(=O)(=O)Nc3ccccc3C(F)(F)F)cc2)C1=O` (centres undefined) returned an RP-LC retention time of 819 s. In the case of `COc1cccc(N2CCN(C(=O)c3cn(-c4ccc(NC(=O)C5CC5)cn4)cn3)CC2)c1` it was 743 s; in that of `CCOC(=O)c1cnc2nc(C)ccc2c1Nc1cccc(Br)c1`, 756 s.
